Measured values published in patent US9708314B2, “Heterocyclic amide compound” (NISSAN CHEMICAL INDUSTRIES, LTD., priority 2013, dated 2017).

Columns and labels:
Assay type in all cases: in vivo
[1] = tested on: Echinochloa oryzacola Vasing.; experiment: Test Example 1: herbicidal activity, application before weed generation in submerged conditions; conditions: Application herbicide amount 320 g/ha; Seventeenth Table
How it was run: (§1)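 Submerged pot test: alluvial soil, 4 cm water, seeds sown mixed, 2.5-leaf rice transplanted; emulsion in water applied to surface day of sowing, dose g/ha; greenhouse 25–30° C.; 3 wk; 0–5 rating.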

[2] = tested on: Monochoria vaginalis; experiment: as above; conditions: Application herbicide amount 320 g/ha; Seventeenth Table
How it was run: as §1

[3] = tested on: Scirpus juncoides; experiment: as above; conditions: Application herbicide amount 320 g/ha; Seventeenth Table
How it was run: as §1

[4] = tested on: Abutilon theophrasti; experiment: Test Example 4: herbicidal effect by application to foliage (diluvial soil, plastic box); conditions: foliage application, 320 g/ha
How it was run: (§2)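 Read-out is a 0–5 visual grade of herbicidal ratio (5: ≥90%, almost withered; 0: ≤5%) taken three weeks after treatment. Compound was applied as a diluted emulsion to stem and leaf parts of 14-day greenhouse-grown plants (25° C. to 30° C.) at rates expressed as g/ha.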

[5] = tested on: Alopecurus myosuroides; experiment: as above; conditions: foliage application, 320 g/ha
How it was run: as §2

[6] = tested on: Amaranthus retroflexus; experiment: as above; conditions: foliage application, 320 g/ha
How it was run: as §2

[7] = tested on: Apera spica-venti.; experiment: as above; conditions: foliage application, 320 g/ha
How it was run: as §2

[8] = tested on: Avena fatua; experiment: as above; conditions: foliage application, 320 g/ha
How it was run: as §2

[9] = tested on: Chenopodium album; experiment: as above; conditions: foliage application, 320 g/ha
How it was run: as §2

[10] = tested on: Digitaria ciliaris; experiment: as above; conditions: foliage application, 320 g/ha
How it was run: as §2

[11] = tested on: Echinochloa crus-galli var. crus-galli; experiment: as above; conditions: foliage application, 320 g/ha
How it was run: as §2

[12] = tested on: Galium spurium; experiment: as above; conditions: foliage application, 320 g/ha
How it was run: as §2

[13] = tested on: Lolium multiflorum Lam.; experiment: as above; conditions: foliage application, 320 g/ha
How it was run: as §2

[14] = tested on: Setaria viridis; experiment: as above; conditions: foliage application, 320 g/ha
How it was run: as §2

[15] = tested on: Stellaria media; experiment: as above; conditions: foliage application, 320 g/ha
How it was run: as §2

[16] = tested on: Beta vulgaris ssp. vulgaris; experiment: Test Example 4: effect on crop by application to foliage (diluvial soil, plastic box); conditions: foliage application, 320 g/ha
How it was run: as §2

[17] = tested on: Brassica campestris L.; experiment: as above; conditions: foliage application, 320 g/ha
How it was run: as §2

[18] = tested on: Glycine max; experiment: as above; conditions: foliage application, 320 g/ha
How it was run: as §2

[19] = tested on: Triticum aestivum; experiment: as above; conditions: foliage application, 320 g/ha
How it was run: as §2

[20] = tested on: Zea mays; experiment: as above; conditions: foliage application, 320 g/ha
How it was run: as §2

[21] = tested on: directly sowed Oryza sativa; experiment: as above; conditions: foliage application, 320 g/ha
How it was run: as §2

| SMILES | A: Echinochloa oryzicola Vasing. (herbicidal effect grade) [1] | C: Monochoria vaginalis (herbicidal effect grade) [2] | B: Scirpus juncoides (herbicidal effect grade) [3] | M (Abutilon theophrasti) herbicidal effect grade [4] | J (Alopecurus myosuroides) herbicidal effect grade [5] | N (Amaranthus retroflexus) herbicidal effect grade [6] | L (Apera spica-venti.) herbicidal effect grade [7] | I (Avena fatua) herbicidal effect grade [8] | O (Chenopodium album) herbicidal effect grade [9] | F (Digitaria ciliaris) herbicidal effect grade [10] | H (Echinochloa crus-galli var. crus-galli) herbicidal effect grade [11] | Q (Galium spurium) herbicidal effect grade [12] | K (Lolium multiflorum Lam.) herbicidal effect grade [13] | G (Setaria viridis) herbicidal effect grade [14] | P (Stellaria media) herbicidal effect grade [15] | f (Beta vulgaris ssp. vulgaris) effect on crop grade [16] | g (Brassica campestris L.) effect on crop grade [17] | c (Glycine max) effect on crop grade [18] | e (Triticum aestivum) effect on crop grade [19] | b (Zea mays) effect on crop grade [20] | other results |
| --- | --- | --- | --- | --- | --- | --- | --- | --- | --- | --- | --- | --- | --- | --- | --- | --- | --- | --- | --- | --- | --- |
| CC(c1nnc2c(C(=O)Nc3nnnn3C)ccc(C(F)(F)F)n12)[S+](C)[O-] (stereo not drawn) [2-053] | 5 (Herbicidal ratio of 90% or more (almost completely withered)) | 4 (Herbicidal ratio of 70% or more and less than 90%) | 5 (Herbicidal ratio of 90% or more (almost completely withered)) | 5 (Herbicidal ratio of 90% or more (almost completely withered)) | 5 (Herbicidal ratio of 90% or more (almost completely withered)) | 5 (Herbicidal ratio of 90% or more (almost completely withered)) | 5 (Herbicidal ratio of 90% or more (almost completely withered)) | 5 (Herbicidal ratio of 90% or more (almost completely withered)) | 5 (Herbicidal ratio of 90% or more (almost completely withered)) | 5 (Herbicidal ratio of 90% or more (almost completely withered)) | 5 (Herbicidal ratio of 90% or more (almost completely withered)) | 5 (Herbicidal ratio of 90% or more (almost completely withered)) | 4 (Herbicidal ratio of 70% or more and less than 90%) | 5 (Herbicidal ratio of 90% or more (almost completely withered)) | 5 (Herbicidal ratio of 90% or more (almost completely withered)) | 5 (Herbicidal ratio of 90% or more (almost completely withered)) | 5 (Herbicidal ratio of 90% or more (almost completely withered)) | 4 (Herbicidal ratio of 70% or more and less than 90%) | 5 (Herbicidal ratio of 90% or more (almost completely withered)) | 5 (Herbicidal ratio of 90% or more (almost completely withered)) | d (directly sowed Oryza sativa) effect on crop grade [21]: 5 (Herbicidal ratio of 90% or more (almost completely withered)) |
| Cn1nnnc1NC(=O)c1ccc(C(F)(F)F)n2c(Nc3ccccc3)nnc12 [2-056] | 4 (Herbicidal ratio of 70% or more and less than 90%) | 3 (Herbicidal ratio of 40% or more and less than 70%) | 4 (Herbicidal ratio of 70% or more and less than 90%) | 4 (Herbicidal ratio of 70% or more and less than 90%) | 1 (Herbicidal ratio of 5% or more and less than 20%) | 4 (Herbicidal ratio of 70% or more and less than 90%) | 1 (Herbicidal ratio of 5% or more and less than 20%) | 1 (Herbicidal ratio of 5% or more and less than 20%) | 5 (Herbicidal ratio of 90% or more (almost completely withered)) | 5 (Herbicidal ratio of 90% or more (almost completely withered)) | 4 (Herbicidal ratio of 70% or more and less than 90%) | 4 (Herbicidal ratio of 70% or more and less than 90%) | 1 (Herbicidal ratio of 5% or more and less than 20%) | 3 (Herbicidal ratio of 40% or more and less than 70%) | 5 (Herbicidal ratio of 90% or more (almost completely withered)) | 5 (Herbicidal ratio of 90% or more (almost completely withered)) | 3 (Herbicidal ratio of 40% or more and less than 70%) | 1 (Herbicidal ratio of 5% or more and less than 20%) | 1 (Herbicidal ratio of 5% or more and less than 20%) | 0 (Herbicidal ratio of 5% or less (almost no effect)) | d (directly sowed Oryza sativa) effect on crop grade [21]: 3 (Herbicidal ratio of 40% or more and less than 70%) |
| CSCCn1nnnc1NC(=O)c1ccc(C(F)(F)F)n2c(C(C)C)nnc12 [2-048] | 5 (Herbicidal ratio of 90% or more (almost completely withered)) | 4 (Herbicidal ratio of 70% or more and less than 90%) | 5 (Herbicidal ratio of 90% or more (almost completely withered)) | 5 (Herbicidal ratio of 90% or more (almost completely withered)) | 3 (Herbicidal ratio of 40% or more and less than 70%) | 5 (Herbicidal ratio of 90% or more (almost completely withered)) | 4 (Herbicidal ratio of 70% or more and less than 90%) | 4 (Herbicidal ratio of 70% or more and less than 90%) | 5 (Herbicidal ratio of 90% or more (almost completely withered)) | 5 (Herbicidal ratio of 90% or more (almost completely withered)) | 5 (Herbicidal ratio of 90% or more (almost completely withered)) | 4 (Herbicidal ratio of 70% or more and less than 90%) | 4 (Herbicidal ratio of 70% or more and less than 90%) | 5 (Herbicidal ratio of 90% or more (almost completely withered)) | 4 (Herbicidal ratio of 70% or more and less than 90%) | 5 (Herbicidal ratio of 90% or more (almost completely withered)) | 5 (Herbicidal ratio of 90% or more (almost completely withered)) | 4 (Herbicidal ratio of 70% or more and less than 90%) | 4 (Herbicidal ratio of 70% or more and less than 90%) | 4 (Herbicidal ratio of 70% or more and less than 90%) | d (directly sowed Oryza sativa) effect on crop grade [21]: 5 (Herbicidal ratio of 90% or more (almost completely withered)) |
